Experimental data reported in ChEMBL document CHEMBL1201862, “PubChem BioAssay data set” (2004).
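These data come from cells grown in 96-well plates and exposed to compound for 48 hours at five concentrations. Here, GI50 denotes the concentration required for 50% inhibition of growth.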 The source made the active and inactive calls. Rule as the data show it: active = GI50 up to about 1.1 µM and inactive = higher.

How the values were obtained:
Experiment in all cases: NCI tumour cell line growth inhibition, 48 h
SNB-75 = test system: SNB-75
HOP-92 = test system: HOP-92
Malme-3M = test system: Malme-3M
HT-29 = test system: HT-29
ACHN = test system: ACHN
OVCAR-3 = test system: OVCAR-3
EKVX = test system: EKVX
SNB-19 = test system: SNB-19
NCI-H460 = test system: NCI-H460
CCRF-CEM = test system: CCRF-CEM
U-251 = test system: U-251
Hs-578T = test system: Hs-578T
RXF 393 = test system: RXF 393
UACC-62 = test system: UACC-62
DU-145 = test system: DU-145
SF-268 = test system: SF-268
A498 = test system: A498
OVCAR-5 = test system: OVCAR-5
SN12C = test system: SN12C
OVCAR-4 = test system: OVCAR-4

Measured: GI50

Brc1ccc2c(-c3csc(-c4c[nH]c5cc(Br)ccc45)n3)c[nH]c2c1
inactive: SNB-75 25.1 µM | HOP-92 31.1 µM | Malme-3M 28.4 µM | HT-29 15.8 µM | ACHN 44 µM | OVCAR-3 52.1 µM | EKVX 35.3 µM | SNB-19 21.3 µM | NCI-H460 18.9 µM | CCRF-CEM 10.2 µM | U-251 15.8 µM | Hs-578T 23 µM | RXF 393 23.4 µM | UACC-62 40.5 µM | DU-145 19.5 µM | SF-268 31.2 µM | A498 37.1 µM | OVCAR-5 26.6 µM | SN12C 37 µM | OVCAR-4 31 µM

CC1(C)N=c2c(ncn2Cc2ccccc2)=C(C(N)=O)N1
inactive: SNB-75 > 100 µM | HOP-92 > 100 µM | Malme-3M > 100 µM | HT-29 > 100 µM | ACHN 94.4 µM | OVCAR-3 > 100 µM | EKVX > 100 µM | SNB-19 > 100 µM | NCI-H460 > 100 µM | CCRF-CEM > 100 µM | U-251 > 100 µM | Hs-578T > 100 µM | RXF 393 > 100 µM | UACC-62 > 100 µM | DU-145 > 100 µM | SF-268 > 100 µM | A498 > 100 µM | OVCAR-5 > 100 µM | SN12C > 100 µM | OVCAR-4 > 100 µM

Oc1cc(-n2cccn2)c(O)cc1-n1cccn1
inactive: SNB-75 > 69.2 µM | HOP-92 21 µM | Malme-3M 30.7 µM | HT-29 23 µM | ACHN 22.4 µM | OVCAR-3 19.1 µM | EKVX > 69.2 µM | SNB-19 > 70.1 µM | NCI-H460 > 100 µM | CCRF-CEM 7.11 µM | U-251 52.4 µM | Hs-578T > 100 µM | RXF 393 16.7 µM | UACC-62 38.9 µM | DU-145 > 48.2 µM | SF-268 55.7 µM | A498 > 72.8 µM | OVCAR-5 53.1 µM | SN12C 19.3 µM | OVCAR-4 19 µM
